# Reference: patent US20240415914A1, “Water Dispersible Cannabinoid Compositions” (priority 2021, published 2024)
# Assay: Stability of cannabinoid and Vitamin E components of Beverage 1 (AB White) stored at 8° C. and 21-25° C., LCMSMS over 570 days
# Type: physicochemical
# Settings: for Stability in AB White, 8° C. (content by LCMSMS): beverage stored at 8° C.; for Stability in AB White, 21-25° C. (content by LCMSMS): beverage stored at 21-25° C.
# Protocol: The LCMSMS was calibrated for 0-1000 ng/ml cannabinoids with the same resin material used in the preparation of the concentrates. At each time period, 100 ml of beverage was diluted with 10 ml of methanol and injected into the LCMSMS for analysis.
smiles,measurement,setting,value
"CCCCCc1cc2c(c(O)c1C(=O)O)[C@@H]1C=C(C)CC[C@H]1C(C)(C)O2 [D9 THCA, delta-9-tetrahydrocannabinolic acid]","Stability in AB White, 8° C. (content by LCMSMS)",day 0,0.950 µg/mL
same,"Stability in AB White, 8° C. (content by LCMSMS)",day 1,0.956 µg/mL
same,"Stability in AB White, 8° C. (content by LCMSMS)",day 2,0.954 µg/mL
same,"Stability in AB White, 8° C. (content by LCMSMS)",day 3,0.934 µg/mL
same,"Stability in AB White, 8° C. (content by LCMSMS)",day 5,0.956 µg/mL
same,"Stability in AB White, 8° C. (content by LCMSMS)",day 8,0.949 µg/mL
same,"Stability in AB White, 8° C. (content by LCMSMS)",day 9,0.937 µg/mL
same,"Stability in AB White, 8° C. (content by LCMSMS)",day 10,0.960 µg/mL
same,"Stability in AB White, 8° C. (content by LCMSMS)",day 11,0.929 µg/mL
same,"Stability in AB White, 8° C. (content by LCMSMS)",day 12,0.942 µg/mL
same,"Stability in AB White, 8° C. (content by LCMSMS)",day 15,0.944 µg/mL
same,"Stability in AB White, 8° C. (content by LCMSMS)",day 16,0.932 µg/mL
same,"Stability in AB White, 8° C. (content by LCMSMS)",day 17,0.951 µg/mL
same,"Stability in AB White, 8° C. (content by LCMSMS)",day 18,0.950 µg/mL
same,"Stability in AB White, 8° C. (content by LCMSMS)",day 19,0.959 µg/mL
same,"Stability in AB White, 8° C. (content by LCMSMS)",day 22,0.960 µg/mL
same,"Stability in AB White, 8° C. (content by LCMSMS)",day 23,0.931 µg/mL
same,"Stability in AB White, 8° C. (content by LCMSMS)",day 24,0.926 µg/mL
same,"Stability in AB White, 8° C. (content by LCMSMS)",day 25,0.957 µg/mL
same,"Stability in AB White, 8° C. (content by LCMSMS)",day 26,0.956 µg/mL
same,"Stability in AB White, 8° C. (content by LCMSMS)",day 29,0.939 µg/mL
same,"Stability in AB White, 8° C. (content by LCMSMS)",day 30,0.955 µg/mL
same,"Stability in AB White, 8° C. (content by LCMSMS)",day 60,0.914 µg/mL
same,"Stability in AB White, 8° C. (content by LCMSMS)",day 90,0.948 µg/mL
same,"Stability in AB White, 8° C. (content by LCMSMS)",day 120,0.932 µg/mL
same,"Stability in AB White, 8° C. (content by LCMSMS)",day 150,0.952 µg/mL
same,"Stability in AB White, 8° C. (content by LCMSMS)",day 180,0.941 µg/mL
same,"Stability in AB White, 8° C. (content by LCMSMS)",day 210,0.923 µg/mL
same,"Stability in AB White, 8° C. (content by LCMSMS)",day 240,0.932 µg/mL
same,"Stability in AB White, 8° C. (content by LCMSMS)",day 270,0.933 µg/mL
same,"Stability in AB White, 8° C. (content by LCMSMS)",day 300,0.939 µg/mL
same,"Stability in AB White, 8° C. (content by LCMSMS)",day 330,0.909 µg/mL
same,"Stability in AB White, 8° C. (content by LCMSMS)",day 360,0.913 µg/mL
same,"Stability in AB White, 8° C. (content by LCMSMS)",day 390,0.923 µg/mL
same,"Stability in AB White, 8° C. (content by LCMSMS)",day 420,0.916 µg/mL
same,"Stability in AB White, 8° C. (content by LCMSMS)",day 450,0.923 µg/mL
same,"Stability in AB White, 8° C. (content by LCMSMS)",day 480,0.905 µg/mL
same,"Stability in AB White, 8° C. (content by LCMSMS)",day 510,0.873 µg/mL
same,"Stability in AB White, 8° C. (content by LCMSMS)",day 540,0.877 µg/mL
same,"Stability in AB White, 8° C. (content by LCMSMS)",day 570,0.872 µg/mL
same,"Stability in AB White, 21-25° C. (content by LCMSMS)",day 0,0.950 µg/mL
same,"Stability in AB White, 21-25° C. (content by LCMSMS)",day 1,0.960 µg/mL
same,"Stability in AB White, 21-25° C. (content by LCMSMS)",day 2,0.938 µg/mL
same,"Stability in AB White, 21-25° C. (content by LCMSMS)",day 3,0.920 µg/mL
same,"Stability in AB White, 21-25° C. (content by LCMSMS)",day 5,0.958 µg/mL
same,"Stability in AB White, 21-25° C. (content by LCMSMS)",day 8,0.937 µg/mL
same,"Stability in AB White, 21-25° C. (content by LCMSMS)",day 9,0.926 µg/mL
same,"Stability in AB White, 21-25° C. (content by LCMSMS)",day 10,0.935 µg/mL
same,"Stability in AB White, 21-25° C. (content by LCMSMS)",day 11,0.949 µg/mL
same,"Stability in AB White, 21-25° C. (content by LCMSMS)",day 12,0.935 µg/mL
same,"Stability in AB White, 21-25° C. (content by LCMSMS)",day 15,0.948 µg/mL
same,"Stability in AB White, 21-25° C. (content by LCMSMS)",day 16,0.921 µg/mL
same,"Stability in AB White, 21-25° C. (content by LCMSMS)",day 17,0.919 µg/mL
same,"Stability in AB White, 21-25° C. (content by LCMSMS)",day 18,0.928 µg/mL
same,"Stability in AB White, 21-25° C. (content by LCMSMS)",day 19,0.917 µg/mL
same,"Stability in AB White, 21-25° C. (content by LCMSMS)",day 22,0.947 µg/mL
same,"Stability in AB White, 21-25° C. (content by LCMSMS)",day 23,0.924 µg/mL
same,"Stability in AB White, 21-25° C. (content by LCMSMS)",day 24,0.927 µg/mL
same,"Stability in AB White, 21-25° C. (content by LCMSMS)",day 25,0.948 µg/mL
same,"Stability in AB White, 21-25° C. (content by LCMSMS)",day 26,0.921 µg/mL
same,"Stability in AB White, 21-25° C. (content by LCMSMS)",day 29,0.922 µg/mL
same,"Stability in AB White, 21-25° C. (content by LCMSMS)",day 30,0.934 µg/mL
same,"Stability in AB White, 21-25° C. (content by LCMSMS)",day 60,0.896 µg/mL
same,"Stability in AB White, 21-25° C. (content by LCMSMS)",day 90,0.892 µg/mL
same,"Stability in AB White, 21-25° C. (content by LCMSMS)",day 120,0.894 µg/mL
same,"Stability in AB White, 21-25° C. (content by LCMSMS)",day 150,0.934 µg/mL
same,"Stability in AB White, 21-25° C. (content by LCMSMS)",day 180,0.945 µg/mL
same,"Stability in AB White, 21-25° C. (content by LCMSMS)",day 210,0.913 µg/mL
same,"Stability in AB White, 21-25° C. (content by LCMSMS)",day 240,0.892 µg/mL
same,"Stability in AB White, 21-25° C. (content by LCMSMS)",day 270,0.905 µg/mL
same,"Stability in AB White, 21-25° C. (content by LCMSMS)",day 300,0.888 µg/mL
same,"Stability in AB White, 21-25° C. (content by LCMSMS)",day 330,0.894 µg/mL
same,"Stability in AB White, 21-25° C. (content by LCMSMS)",day 360,0.925 µg/mL
same,"Stability in AB White, 21-25° C. (content by LCMSMS)",day 390,0.907 µg/mL
same,"Stability in AB White, 21-25° C. (content by LCMSMS)",day 420,0.909 µg/mL
same,"Stability in AB White, 21-25° C. (content by LCMSMS)",day 450,0.921 µg/mL
same,"Stability in AB White, 21-25° C. (content by LCMSMS)",day 480,0.873 µg/mL
same,"Stability in AB White, 21-25° C. (content by LCMSMS)",day 510,0.903 µg/mL
same,"Stability in AB White, 21-25° C. (content by LCMSMS)",day 540,0.877 µg/mL
same,"Stability in AB White, 21-25° C. (content by LCMSMS)",day 570,0.877 µg/mL
